≈ marks a conversion by molar mass, not a printed value.
Columns and labels:
[1] = test system: platelet aggregation; assay: in vitro inhibitory activity of platelet aggregation (ADP); type: cell-based, rabbit (Japanese domestic white male); settings: Oryctolagus cuniculus, rabbit PRP, 10 μM ADP, 37° C., read-out: IC50 (minimum concentration which inhibited more than 50% of platelet aggregation)
Procedure: The in vitro platelet aggregation imhibiting activity of the compounds of the invention were examined by using rabbits. Blood was withdrawn from the ear vein of Japanese domestic white male rabbits weighing 2.5 to 3.5 kg. A mixture of a 3.8% trisodium citrate solution and the blood in a ratio of 1:9 was centrifuged at a speed of 1000 rpm for 10 minutes. The upper layer was separated as platelet-rich plasma (PRP). The lower layer was further centrifuged at a speed of 2800 rpm for 10 minutes. The upper layer was separated as platelet-poor plasma (PPP). The number of platelets was adjusted to 6×10^5 /μl to 7×10^5 /μl by diluting the PRP with PPP. 25 microliters of the test compounds prepared as shown below was added in an amount of 25 to 250 microliters of PRP after the adjustment, and the mixture was pre-incubated at 37° C. for 2 minutes, and then 10 μM (final) of ADP was added. By using an aggregometer, changes in transmission were recorded.
The drug was dissolved in ethanol to a concentration of 10 mg/ml, and successively diluted with phosphate buffer (pH 7.4) prior to use.
The rate of inhibition of platelet aggregation was determined from the following equation. [formula] To : the transmittance of the system containing the phosphate buffer, T: the transmittance of the sytem to which the test drug was added.
The minimum concentration of the drug which inhibited more than 50% of platelet aggregation was shown as an IC50 value.

[2] = test system: blood pressure and heart beat rate of rats; assay: hypotensive activity and heart beat rate, intravenous injection in anesthetized rats; type: in vivo, male wister rats; settings: Rattus norvegicus, i.v.; for ED (10% increase of heart rate): read-out: H-ED10 (dosage causing a 10% increase of the heart rate); for ED (20% lowering of blood pressure): read-out: P-ED20 (dosage causing a 20% lowering of the mean blood pressure)
Procedure: (1) The actions of the thiaprostaglandin E1 derivatives of the invention on the blood pressure and heart beat rate of rats were examined by intravenous injection under anesthesia. Male wister rats weighing about 250 g were used. Urethane (500 mg/kg) and α-chloralose (100 mg/kg) were intraperitoneally administered to the rats. The rats were anesthetized and fixed in place. Each of the test compounds was dissolved in a small amount of ethanol and diluted with physiological saline to adjust the final ethanol concentration to not more than 5%. The solution was intravenously injected into the rats through a catheter inserted into the femoral vein. The blood pressure of the rats was measured by a pressure transducer through a catheter inserted into the carotid artery of the rats. The heart beat rate was determined from the blood pressure pulse. The action of the test compound of the blood pressure was expressed as the dosage (p-ED20, μg/kg) of the test compound which caused a 20% lowering of the mean blood pressure before administration of the compound. The action of the test compound on the heart rate was expressed as the dosage (H-ED10, μg/kg) of the test compound which caused a 10% increase of the heart rate from the heart beat rate before administration of the test compound.

[3] = test system: platelet aggregation; assay: extra vivo inhibitory activity of platelet aggregation after oral administration; type: in vivo, guinea pigs (Hartley strain); settings: Cavia porcellus; for inhibition at 10 mg/kg: 10 mg/kg p.o.; for inhibition at 3 mg/kg: 3 mg/kg p.o.
Procedure: The extra vivo platelet aggregation inhibitory activity of the 7-thiaprostaglandin E1 derivatives of the invention were measured by using guinea pigs. A test drug prepared as a 30% ethanol solution of each of the compounds of the invention in ethanol diluted with physiological saline and as a control 30% ethanol solution were orally adminstered in a dose of 1 ml/kg to Hartleystrain guinea pigs having a body weight of 350 to 450 g which had been fasted for 17 hours. 1 hour or 4 hours after the administration of the compound, blood was drawn off by the cardiac puncture using trisodium citrate so that the ratio of the blood to 3.8% trisodium citrate was 9:1. The blood was centrifuged at a speed of 700 rpm for 10 minutes. The upper layer was separated as plateletrich plasma (PRP). The lower layer was further centrifuged at a speed of 2800 rpm for 10 minutes. The upper layer was separated as platelet poor plasma (PPP). 250 microliters of the resulting PRP was taken into an aggregometer cuvette, and incubated at 37° C. for 2 minutes. Then, 25 microliters of a […] ADP disodium solution adjusted by dissolving with 0.1M tris-HCl buffer (ph 8.0) was added. The aggregation curve was recorded for 3 minutes. The maximum degree of aggregation of platelets within this time period was read, and the rate of inhibitor of platelet aggregation was calculated from the following equation. [formula] TC : the transmittance of a control group (to which only the 30% ethanol solution was administered),
TD : the transmittance of a drug administered group.

SMILES	IC50 [1] [µg/mL]	further results
O=C(O)CCCCSC[C@H]1C(=O)C[C@@H](O)[C@@H]1/C=C/[C@@H](O)C1CCCCC1 [Compound 303, 16,17,18,19,20-pentanor-15-cyclohexyl-6-thiaprostaglandin E1]	0.27 (≈ 0.702 µM)	–
CCCCCCCCCCOC(=O)CCCCCS[C@H]1C(=O)C[C@@H](O)[C@@H]1/C=C/[C@@H](O)C1CCCCC1 [Compound 143, 16,17,18,19,20-pentanor-15-cyclohexyl-7-thiaprostaglandin E1 decyl ester]	0.058 (≈ 0.111 µM)	–
CCCC(C)CC(O)/C=C/[C@H]1CCC(=O)[C@@H]1SCCCCCC(=O)OC (relative stereo) [reference compound]	> 100	–
CCCCC[C@H](O)/C=C/[C@H]1[C@H](O)CC(=O)[C@@H]1SCCCCCC(=O)OC [Compound 124, 7-Thiaprostaglandin E1 methyl ester]	0.47 (≈ 1.22 µM)	–
CCCCC[C@H](O)/C=C/[C@H]1[C@H](O)CC(=O)[C@@H]1CSCCCCC(=O)O [Compound 300, 6-thiaprostaglandin E1]	0.45 (≈ 1.21 µM)	–
CCCC[C@@H](C)C[C@H](O)/C=C/[C@H]1[C@H](O)CC(=O)[C@@H]1SCCCCCC(=O)OC [Compound 134, 17(R),20-dimethyl-7-thiaprostaglandin E1 methyl ester]	0.0018 (≈ 0.00434 µM)	–
CCCCC[C@H](O)/C=C/[C@H]1[C@H](SCCCCCC(=O)OC)C(=O)C[C@@H]1O [15-epi-ent of Compound 124]	8.9 (≈ 23 µM)	–
CCCCC[C@H](O)/C=C/[C@H]1[C@H](O)CC(=O)[C@@H]1CCCSCCC(=O)OC [Compound 405, 4-thiaprostaglandin E1 methyl ester]	8.6 (≈ 22.2 µM)	–
CCCC[C@H](C)C[C@H](O)/C=C/[C@H]1[C@H](O)CC(=O)[C@@H]1SCCCCCC(=O)OC [Compound 131, 17(S),20-dimethyl-7-thiaprostaglandin E1 methyl ester]	0.0006 (≈ 0.00145 µM)	ED (10% increase of heart rate) [2]: 0.83 µg/kg; ED (20% lowering of blood pressure) [2]: 2.3 µg/kg; inhibition at 3 mg/kg ([3]; 1 hr): 100%
O=C(CCCCCS[C@H]1C(=O)C[C@@H](O)[C@@H]1/C=C/[C@@H](O)C1CCCCC1)OCc1ccccc1 [Compound 147, 16,17,18,19,20-pentanor-15-cyclohexyl-7-thiaprostaglandin E1 benzyl ester]	0.054 (≈ 0.114 µM)	inhibition at 10 mg/kg ([3]; 1 hr): 54%; inhibition at 10 mg/kg ([3]; 4 hr): 28.9%
CCCCC[C@H](O)/C=C/[C@H]1[C@H](O)CC(=O)[C@@H]1CSCCCCC(=O)OC [Compound 305, 6-thiaprostaglandin E1 methyl ester]	6 (≈ 15.5 µM)	–

The next lines start with results.

IC50 [1] [µg/mL]	SMILES	further results
0.004 (≈ 0.0104 µM)	O=C(O)CCCCCS[C@H]1C(=O)C[C@@H](O)[C@@H]1/C=C/[C@@H](O)C1CCCCC1 [Compound 111, 16,17,18,19,20-pentanor-15-cyclohexyl-7-thiaprostaglandin E1]	ED (10% increase of heart rate) [2]: 2.5 µg/kg; ED (20% lowering of blood pressure) [2]: 1.17 µg/kg
0.52 (≈ 1.26 µM)	COC(=O)C(C)CCCCS[C@H]1C(=O)C[C@@H](O)[C@@H]1/C=C/[C@@H](O)C1CCCCC1 (stereo partly shown) [Compound 150, 16,17,18,19,20-pentanor-15-cyclohexyl-2-methyl-7-thiaprostaglandin E1 methyl ester]	inhibition at 10 mg/kg ([3]; 1 hr): 20.8%; inhibition at 10 mg/kg ([3]; 4 hr): 0.7%
0.32 (≈ 0.803 µM)	COC(=O)CCCCSC[C@H]1C(=O)C[C@@H](O)[C@@H]1/C=C/[C@@H](O)C1CCCCC1 [Compound 308, 16,17,18,19,20-pentanor-15-cyclohexyl-6-thiaprostaglandin E1 methyl ester]	–
0.091 (≈ 0.229 µM)	COC(=O)/C=C/CCCS[C@H]1C(=O)C[C@@H](O)[C@@H]1/C=C/[C@@H](O)C1CCCCC1 [Compound 156, 16,17,18,19,20-pentanor-15-cyclohexyl-2,3-dehydro-7-thiaprostaglandin E1 methyl ester]	–
0.015 (≈ 0.0326 µM)	O=C(CCCCCS[C@H]1C(=O)C[C@@H](O)[C@@H]1/C=C/[C@@H](O)C1CCCCC1)Oc1ccccc1 [Compound 144, 16,17,18,19,20-pentanor-15-cyclohexyl-7-thiaprostaglandin E1 phenyl ester]	ED (10% increase of heart rate) [2]: 2.6 µg/kg; ED (20% lowering of blood pressure) [2]: 3.4 µg/kg; inhibition at 3 mg/kg ([3]; 1 hr): 37.4%; inhibition at 3 mg/kg ([3]; 4 hr): 3%; inhibition at 10 mg/kg ([3]; 1 hr): 85.4%; inhibition at 10 mg/kg ([3]; 4 hr): 79.2%
2.4 (≈ 6.02 µM)	COC(=O)CCSCCC[C@H]1C(=O)C[C@@H](O)[C@@H]1/C=C/[C@@H](O)C1CCCCC1 [Compound 413]	–
0.64 (≈ 1.55 µM)	CCCC[C@H](C)C[C@H](O)/C=C/[C@H]1[C@H](O)CC(=O)[C@@H]1SCCC/C=C/C(=O)OC [Compound 160, 17(S),20-dimethyl-2,3-dehydro-7-thiaprostaglandin E1 methyl ester]	–
0.11 (≈ 0.276 µM)	COC(=O)CCCCCS[C@@H]1C(=O)C[C@H](O)[C@H]1/C=C/[C@@H](O)C1CCCCC1 [15-epi-ent of Compound 138]	–

Reference: patent US4466980A, “Thiaprostaglandin E1 derivatives, process for production thereof, and pharmaceutical use thereof” (Teijin Limited, priority 1980, dated 1984)
